From ChEMBL document CHEMBL4610086, “N-Acylethanolamine Acid Amidase (NAAA): Structure, Function, and Inhibition” (J Med Chem, 2020)
Values belong to the molecule of their own block, whether it stands above or below them.

Tests used:
[1] = biological target: T1, N-acylethanolamine-hydrolyzing acid amidase (Homo sapiens, UniProt Q02083); assay: Inhibition of NAAA (unknown origin)
T1 sequence (Q02083 whole entry): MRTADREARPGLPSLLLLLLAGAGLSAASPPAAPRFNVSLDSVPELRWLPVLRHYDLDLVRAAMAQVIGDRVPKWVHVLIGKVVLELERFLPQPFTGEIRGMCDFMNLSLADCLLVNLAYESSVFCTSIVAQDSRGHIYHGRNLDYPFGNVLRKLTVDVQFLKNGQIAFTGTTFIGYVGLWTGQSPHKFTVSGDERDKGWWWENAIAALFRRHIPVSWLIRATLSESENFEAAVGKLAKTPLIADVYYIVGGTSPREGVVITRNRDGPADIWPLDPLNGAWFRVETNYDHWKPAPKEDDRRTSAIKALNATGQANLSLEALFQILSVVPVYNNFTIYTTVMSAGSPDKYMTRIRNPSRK

[2] = Blood brain barrier permeability in human; assay type: ADME; conditions: read-out: BPR
[3] = biological target: T1, N-acylethanolamine-hydrolyzing acid amidase; assay: Inhibition of human NAAA
[4] = biological target: T1, N-acylethanolamine-hydrolyzing acid amidase; assay: Inhibition of human NAAA expressed in HEK293 cell membranes using [3H]-N-palmitoylethanolamine as substrate after 30 mins by liquid scintillation counting assay

IC50 [1]: 3.1 µM
Structure (SMILES): O=C(CCc1ccc(-c2ccccc2)cc1)N1CCCC1

Kp [2]: 0.2
Structure (SMILES): CCS(=O)(=O)c1ccccc1C(=O)N1CCN(c2nc3ccc(F)cc3s2)C[C@@H]1C

Structure (SMILES): CCCCc1ccc(O[C@@H]2C[C@H]3CC[C@@H](C2)N3CS(=O)(=O)c2c(C)n[nH]c2C)cc1
IC50 [3]: 23 nM

IC50 [4]: > 30 µM
Structure (SMILES): CCCCCCCCCCCCCCCC(=O)OC1CCCC1 [CYCLOPENTYL PALMITATE]
